How the values were obtained:
[1] = system: hyperuricemic mice; experiment: action of lowering serum uric acid levels for hyperuricemic mice (potassium oxonate model); type: in vivo, BALBc mice; settings: FIG. 2
Description: As to the animals used, male 7-week old BALBc mice were purchased from CLEA Japan, Inc., and subjected to an experiment after a one-week period of conditioning. The animals were bred in a breeding room with air-conditioning facilities (temperature: 23.5°±1.0° C., humidity: 55±10 RH %, the number of ventilation: 12 to 15 times/hour, illuminated: from 7:00 to 19:00 each day). During the period of conditioning, the mice were allowed to take a commercially available feed (CE-2, manufactured by CLEA Japan, Inc.) and distilled water ad libitum.
Oxonic acid is a substance that raises a blood uric acid level by inhibiting a urikase, a metabolic enzyme for uric acid. In view of the above, potassium oxonate (PO) was administered, thereby generating hyperuricemic model animals (see, Planta Med 2009; 75:302-306). […] In all the groups that include PO administration, PO previously suspended in a 0.5% aqueous CMC-Na solution was administered at a concentration of 250 mg/kg, and Normal Group was administered with a 0.5% aqueous CMC-Na solution, each being administered intraperitoneally. […] After 2 hours from the administration with PO, the blood was collected from the abdominal vena cava under anesthesia. After blood removal, the liver was harvested. The collected blood was allowed to stand at room temperature for 45 minutes, and centrifuged at 8,000 rpm for 10 minutes to recover sera. Here, the sera and the liver were preserved at −80° C. until the measurements were carried out.
The serum uric acid level was measured using 7180 Clinical Analyzer (manufactured by Hitachi Technologies).
The actions of lowering serum uric acid levels of soybean peptide heat-treated products were studied using hyperuricemic model animals, in the same manner as in Test Example 2. […] For each of the above-mentioned groups, the administration and the blood collection were carried out in the same manner as in Test Example 2 to measure a serum uric acid level. Here, the mixture of the 8 kinds of cyclic dipeptides prepared by using synthesized products of Cyclo(Ser-Tyr), Cyclo(Tyr-Gly), Cyclo(Tyr-Tyr), Cyclo(Phe-Tyr), Cyclo(Leu-Tyr), Cyclo(Val-Tyr), Cyclo(Ile-Tyr), and Cyclo(Asn-Tyr), in amounts to be contained in the soybean peptide heat-treated product, was used.
The actions of lowering serum uric acid levels of soybean peptide heat-treated products according to dose were studied using hyperuricemic model animals, in the same manner as in Test Example 3. […] For each of the above-mentioned groups, the administration and the blood collection were carried out in the same manner as in Test Example 2 to measure a serum uric acid level.

[2] = biological target: xanthine oxidase (XO); experiment: in vitro xanthine oxidase (XO) inhibiting action; type: biochemical; settings: 4 U/L XO in PBS pH 7.5, xanthine substrate, absorbance at 295 nm after 30 minutes; mean±standard error
Description: The in vitro xanthine oxidase (XO) inhibiting action was studied on 210 kinds of cyclic dipeptides, linear dipeptides Tyr-Gly and Gly-Tyr, and an amino acid Tyr. […] Thereafter, 20 μL of a 250 μM xanthine solution previously dissolved in the PBS was added thereto, and the absorbance after 30 minutes was measured using a spectrophotometer (Synegy HT, manufactured by Bio Tek). The XO inhibition rate (%) at each concentration was calculated by the following calculation formula, to obtain activities of inhibiting XO (IC50 values). […] [formula] • wherein A: the absorbance of an enzyme-added, sample-non-added group at 295 nm; • B: the absorbance of an enzyme-non-added, sample-non-added group at 295 nm; • C: the absorbance of an enzyme-added, sample-added group at 295 nm; and • D: the absorbance of an enzyme-non-added, sample-added group at 295 nm.

Row | IC50 [2] [µM] | Compound | other results
1 | 172 ± 13.5 | O=C(O)CC1NC(=O)C(Cc2ccc(O)cc2)NC1=O (centres unmarked) [Cyclo(Asp-Tyr), cycloaspartyltyrosine] | –
2 | 22.2 ± 0.8 | O=C1NC(Cc2ccc(O)cc2)C(=O)NC1Cc1ccccc1 (centres unmarked) [Cyclo(Phe-Tyr), cyclophenylalanyltyrosine] | –
3 | 29.5 ± 2.9 | O=C1NC(Cc2ccc(O)cc2)C(=O)NC1Cc1ccc(O)cc1 (centres unmarked) [Cyclo(Tyr-Tyr), cyclotyrosyltyrosine] | –

Second part, the compound before the results:

Row | Compound | IC50 [2] [µM] | other results
4 | Oc1ncnc2[nH]ncc12 [Allopurinol, reference compound] | – | serum uric acid level, effect versus PO Group ([1]; 1 mg/kg oral): significant difference
5 | NC(=O)CC1NC(=O)C(Cc2ccc(O)cc2)NC1=O (centres unmarked) [Cyclo(Asn-Tyr), cycloasparaginyltyrosine] | 113 ± 11.4 | –
6 | O=C1CNC(=O)C(Cc2ccc(O)cc2)N1 (centres unmarked) [Cyclo(Tyr-Gly), cyclotyrosylglycine] | – | serum uric acid level, effect versus PO Group ([1]; 30 mg/kg oral): significant difference; serum uric acid level, effect versus PO Group ([1]; 100 mg/kg oral): significant difference; action of lowering serum uric acid level ([1]; Cyclo(Tyr-Gly) 10, 30, 100 mg/kg oral, PO 250 mg/kg i.p.): has an action of lowering a uric acid level in a dose-dependent manner

From patent US9650415B2, “Uric acid-lowering agent” (Suntory Holdings Limited, priority 2014, dated 2017)
